Test: Compatibility study: rosiglitazone maleate mixed with excipients/metformin and water, formation of Compound 1
Type: physicochemical
Conditions: rosiglitazone maleate mixed with the named excipient in proportions of 500 mg/4 mg tablets, 0.5 ml water added, 65° C. for 4 days
Protocol: Rosiglitazone maleate was mixed with various excipients and with metformin in the same proportions as present in the 500 mg/4 mg (base strength) metformin/rosiglitazone maleate tablets. 0.5 ml of water was added to each mixture, and the samples were kept at 65° C. for 4 days. The amount of Compound 1 was determined in each of the samples using the method in Example 4. The peaks were measured and the area percent (area of Compound 1 peak/area of all rosiglitazone related peaks) of the Compound 1 peak is listed below.
Placebo mix A refers to a mixture of excipients as indicated in Example 5a, with the exception of rosiglitazone maleate.
Placebo mix B refers to a mixture of excipients as indicated in Example 5b, with the exception of rosiglitazone maleate.

In the case of `CN(CCOc1ccc(CC2SC(=O)NC2=O)cc1)c1ccccn1.O=C(O)/C=C\C(=O)O` (racemic) [Rosiglitazone Maleate (alone), (±)-5-[[4-[2-(methyl-2-pyridinylamino)ethoxy]phenyl]methyl]-2,4-thiazolidinedione, (Z)-2-butenedioate (1:1)], the “Area Percent of Compound 1 peak (area of Compound 1 peak/area of all rosiglitazone related peaks)” value is reported as 0.9 Area Percent.
